Measurements from patent publication EP2271935B1, “METHOD AND KIT FOR THE EX VIVO EVALUATION OF THE RESPONSE OF A TUMOR TO CONDITIONS TO BE TESTED” (Universität Leipzig, priority 2008, dated 2009).

Test system: colonies of epithelial cells of head and neck squamous carcinoma
Test: ex vivo colony formation assay of collagenase-digested tumor samples, epithelial colonies counted after cytokeratin staining
Type: cell-based, human
Details: for Range from / Range to: concentrations with log-linear relation to response; for Range from / Range to / Cut-off concentrations Sample 1 / Cut-off concentrations Sample 2 / Cut-off concentrations Sample 3 / IC50 Sample 1 / IC50 Sample 2 / IC50 Sample 3: docetaxel (TPL = 0.55 µmol/l), 72 h
Description: Thereafter the tumors which usually have a size of about 0.1 to 1 ml were mechanically disintegrated by mincing to tissue pats of about 0.1 to 10 mm^3 and immersed each in 30 ml of pre-warmed riboflavin-free RPMI 1640 medium without phenol red and containing 14.5 mmol/l HEPES, 13.5 mmol/l NaHCO3, stabilized glutamine, 10% (v/v) fetal calf serum, the antibiotics penicillin, streptomycin and amikacin, as well as the antimycotic nystatin. The tumor cells were always handled at room temperature or warmer and never exposed to light other than the light of a sodium discharge lamp with an emission wavelength of 589 nm. Immediately after mechanical disintegration 120 U/ml collagenase type IV of Clostridium histolyticum (EC 3.4.24.3, type IV) were added and the mixture incubated for 16 h at 36.5°C in brown glass bottles in an incubator. To ensure optimal incubation conditions, the CO2 concentration therein was constantly kept at 3.5% and relative humidity at 95%. Following enzymatic disintegration by collagenase the digest was centrifuged for 10 min at 1200 rpm, the resulting pellets were carefully re-suspended in fresh culture medium supplemented as described but without collagenase. […] Ex-vivo testing was performed 72 h using the same culture conditions as during the collagenase digest.
After 72 hours of incubation, the wells were rinsed twice with phosphate buffered saline, pH 7.8, and the adherent cells and cell colonies were fixed with ice-cold 90% methanol for 10 min. Fixed specimens were exposed for 5 min to PBS/ 0.1% Tween-20® (Polysorbate 20) before preincubation with 1% serum in PBS/ 0.1% Tween-20 for 45 min, followed by overnight incubation at 4°C with the primary antibody (anti-cytokeratin; SantaCruz sc-8018, C11) diluted 1:400 in PBS/ 0.1% Tween-20 supplemented with 0.2 % serum. After three rinses for 10 min each with PBS/ 0.2 % Serum/ 0.1% Tween-20, specimens were incubated for another 2 h at room temperature in the dark with the secondary antibody (anti-mouse IgG coupled with Cy2 or Cy3 fluorescence dye, Jackson ImmunoResearch, Cambs, UK) in a 1:400 dilution in PBS/ 0.2 % Serum/ 0.1 % Tween-20 followed by three rinses with PBS/ 0.2 % Serum/ 0.1 % Tween-20, and a final rinse with distilled water for 2 min. The test plate was air dried, and fluorescence signals were imaged with the Zeiss Axiovert 200M inverted fluorescence microscope (Zeiss, Jena, Germany) using Zeiss filter sets 44 and 43HE for Cy2 and Cy3, respectively. The evaluation of the colonies is possible using every given fluorescence microscope but is eased by the use of dedicated filter sets. […] The test is utilized by separately counting of colonies of different types (stained epithelial, unstained stromal cells), the numbers of colonies in the different treatments (e.g. doses of radiation or concentrations of chemotherapeutics) are recorded and kept for further analysis.
Freshly resected probes of head and neck squamous carcinoma of 14 untreated patients were investigated and treated if not stated otherwise as described in example 1. Three fragments were each excised from different tumor areas, weighed, and treated with collagenase as outlined in Example 1.
1.5 mg of tumor was applied to a well.
Freshly resected probes of head and neck squamous carcinoma of 14 untreated patients were investigated and treated if not stated otherwise as described in example 1. Three fragments were each excised from different tumor areas, weighed, and treated with collagenase as outlined in Example 1. Collagenase digests were exposed to concentrations in the range from 0.5- to 32-fold the tolerated plasma levels (TPL) of docetaxel: (TPL = 0.55 µmol/l).

SMILES: CC(=O)O[C@@]12CO[C@@H]1C[C@H](O)[C@@]1(C)C(=O)[C@H](O)C3=C(C)[C@@H](OC(=O)[C@H](O)[C@@H](NC(=O)OC(C)(C)C)c4ccccc4)C[C@@](O)([C@@H](OC(=O)c4ccccc4)[C@H]21)C3(C)C [docetaxel]
- Range from (Tumor-No. 1): 2.0 n-fold TPL
- Range to (Tumor-No. 1): 8.0 n-fold TPL
- Range from (Tumor-No. 2): 0.5 n-fold TPL
- Range to (Tumor-No. 2): 32.0 n-fold TPL
- Range from (Tumor-No. 3): 2.0 n-fold TPL
- Range to (Tumor-No. 3): 32.0 n-fold TPL
- Range from (Tumor-No. 4): 4.0 n-fold TPL
- Range to (Tumor-No. 4): 32.0 n-fold TPL
- Range from (Tumor-No. 5): 0.5 n-fold TPL
- Range to (Tumor-No. 5): 32.0 n-fold TPL
- Range from (Tumor-No. 6): 2.0 n-fold TPL
- Range to (Tumor-No. 6): 32.0 n-fold TPL
- Range from (Tumor-No. 7): 2.0 n-fold TPL
- Range to (Tumor-No. 7): 32.0 n-fold TPL
- Range from (Tumor-No. 8): 1.0 n-fold TPL
- Range to (Tumor-No. 8): 32.0 n-fold TPL
- Range from (Tumor-No. 9): 0.5 n-fold TPL
- Range to (Tumor-No. 9): 32.0 n-fold TPL
- effect on number of epithelial colonies at low concentrations (concentrations ≤ TPL, seven tumors (No. 2, 3, 4, 5, 6, 8 and 9)): hormesis
- Cut-off concentrations Sample 1 (Tumor-No. 1): 8 n-fold TPL
- Cut-off concentrations Sample 2 (Tumor-No. 1): 8 n-fold TPL
- Cut-off concentrations Sample 3 (Tumor-No. 1): 8 n-fold TPL
- IC50 Sample 1 (Tumor-No. 1): 4.565 n-fold TPL
- IC50 Sample 2 (Tumor-No. 1): 4.718 n-fold TPL
- IC50 Sample 3 (Tumor-No. 1): 5.040 n-fold TPL
- Cut-off concentrations Sample 1 (Tumor-No. 2): X (not more than 5 colonies at most have appeared at the highest dose rate)
- Cut-off concentrations Sample 2 (Tumor-No. 2): X (not more than 5 colonies at most have appeared at the highest dose rate)
- Cut-off concentrations Sample 3 (Tumor-No. 2): X (not more than 5 colonies at most have appeared at the highest dose rate)
- IC50 Sample 1 (Tumor-No. 2): 1.486 n-fold TPL
- IC50 Sample 2 (Tumor-No. 2): 0.579 n-fold TPL
- IC50 Sample 3 (Tumor-No. 2): 1.157 n-fold TPL
- Cut-off concentrations Sample 1 (Tumor-No. 3): X (not more than 5 colonies at most have appeared at the highest dose rate)
- Cut-off concentrations Sample 2 (Tumor-No. 3): X (not more than 5 colonies at most have appeared at the highest dose rate)
- Cut-off concentrations Sample 3 (Tumor-No. 3): X (not more than 5 colonies at most have appeared at the highest dose rate)
- IC50 Sample 1 (Tumor-No. 3): 16.404 n-fold TPL
- IC50 Sample 2 (Tumor-No. 3): 10.711 n-fold TPL
- IC50 Sample 3 (Tumor-No. 3): 19.173 n-fold TPL
- Cut-off concentrations Sample 1 (Tumor-No. 4): XX (more than 5 colonies have appeared at the highest dose rate)
- Cut-off concentrations Sample 2 (Tumor-No. 4): X (not more than 5 colonies at most have appeared at the highest dose rate)
- Cut-off concentrations Sample 3 (Tumor-No. 4): XX (more than 5 colonies have appeared at the highest dose rate)
- IC50 Sample 1 (Tumor-No. 4): 27.819 n-fold TPL
- IC50 Sample 3 (Tumor-No. 4): 23.393 n-fold TPL
- Cut-off concentrations Sample 1 (Tumor-No. 5): X (not more than 5 colonies at most have appeared at the highest dose rate)
- Cut-off concentrations Sample 2 (Tumor-No. 5): XX (more than 5 colonies have appeared at the highest dose rate)
- Cut-off concentrations Sample 3 (Tumor-No. 5): X (not more than 5 colonies at most have appeared at the highest dose rate)
- IC50 Sample 1 (Tumor-No. 5): 3.891 n-fold TPL
- IC50 Sample 3 (Tumor-No. 5): 9.987 n-fold TPL
- Cut-off concentrations Sample 1 (Tumor-No. 6): X (not more than 5 colonies at most have appeared at the highest dose rate)
- Cut-off concentrations Sample 2 (Tumor-No. 6): X (not more than 5 colonies at most have appeared at the highest dose rate)
- Cut-off concentrations Sample 3 (Tumor-No. 6): X (not more than 5 colonies at most have appeared at the highest dose rate)
- IC50 Sample 1 (Tumor-No. 6): 8.208 n-fold TPL
- IC50 Sample 2 (Tumor-No. 6): 6.690 n-fold TPL
- IC50 Sample 3 (Tumor-No. 6): 8.404 n-fold TPL
- Cut-off concentrations Sample 1 (Tumor-No. 7): 32 n-fold TPL
- Cut-off concentrations Sample 2 (Tumor-No. 7): 32 n-fold TPL
- Cut-off concentrations Sample 3 (Tumor-No. 7): 32 n-fold TPL
- IC50 Sample 1 (Tumor-No. 7): 3.616 n-fold TPL
- IC50 Sample 2 (Tumor-No. 7): 3.629 n-fold TPL
- IC50 Sample 3 (Tumor-No. 7): 2.692 n-fold TPL
- Cut-off concentrations Sample 1 (Tumor-No. 8): 32 n-fold TPL
- Cut-off concentrations Sample 2 (Tumor-No. 8): 32 n-fold TPL
- Cut-off concentrations Sample 3 (Tumor-No. 8): X (not more than 5 colonies at most have appeared at the highest dose rate)
- IC50 Sample 1 (Tumor-No. 8): 6.709 n-fold TPL
- IC50 Sample 3 (Tumor-No. 8): 5.282 n-fold TPL
- Cut-off concentrations Sample 1 (Tumor-No. 9): X (not more than 5 colonies at most have appeared at the highest dose rate)
- Cut-off concentrations Sample 2 (Tumor-No. 9): X (not more than 5 colonies at most have appeared at the highest dose rate)
- Cut-off concentrations Sample 3 (Tumor-No. 9): X (not more than 5 colonies at most have appeared at the highest dose rate)
- IC50 Sample 1 (Tumor-No. 9): 6.964 n-fold TPL
- IC50 Sample 2 (Tumor-No. 9): 7.495 n-fold TPL
